The results in this text go back to article PMC11432454, “An Ingenane-Type Diterpene from Euphorbia kansui Promoted Cell Apoptosis and Macrophage Polarization via the Regulation of PKC Signaling Pathways” (International Journal of Molecular Sciences, 2024).

What is called IC50 is the concentration needed to halve the response being measured. By CC50 is commonly meant the concentration giving 50% cytotoxicity. A low value points to harm at low concentration.

Series [1] concerns PKC δ, ERK, and NF-κB in LPS-stimulated RAW264.7 cells. The series is described as follows: Western blotting of PKC δ, ERK, NF-κB in LPS-stimulated RAW264.7 cells. It counts as cell-based, mouse. The conditions noted are these: for level of PKC δ protein / phosphorylation of PKC δ, ERK, and NF-κB: LPS-stimulated RAW264.7, 24 h; for phosphorylation of PKC δ, ERK, and NF-κB: compared to the LPS group, BIS 150 nmol·L^−1. As to the method:
(§1) Mouse macrophage cell line RAW264.7 was incubated in a DMEM medium (Gibco, Carlsabad, CA, USA) supplemented with 10% fetal bovine serum (FBS, Gibco), 10,000 U/mL penicillin, and 10,000 μg/mL streptomycin. RAW264.7 cells were treated with 1 μg/mL Lipopolysaccharide (LPS, Sigma, Saint Louis, MO, USA, 12181202) to promote the polarization of macrophages towards M1 or 20 ng/mL interleukin 4 (IL-4, Beyotime, Shanghai, China) to promote the polarization of macrophages towards M2.
(§2) Protein samples were prepared using a RIPA lysis buffer. The concentration of the protein was analyzed using nucleic acid and protein microanalyzer (Molecular Devices, San Jose, CA, USA). SDS-PAGE gel electrophoresis was performed to separate the proteins, which then were electro-transferred onto a PVDF membrane. The membranes were blocked with 5% non-fat milk for 2 h and incubated with primary antibodies and secondary antibodies. The protein bands were detected by the ECL and were exposed to the TANON gel imager (Shanghai, China). The results were analyzed by Image J 180 software.
In order to investigate the effects of PKC activation on the effects of drug treatment, 150 nmoL/L bisindolylmaleimide (BIS) was used. BIS (Beyotime, Shanghai, China) is a potent inhibitor of PKC α/β/γ and PKC δ/ε. This agent was stored at −80 °C in DMSO and cells were pre-incubated with the inhibitor for 4 h prior to being treated with compound A.
For orientation: A western blot detects proteins with antibodies after separation by electrophoresis.

Series [2] concerns PKC δ, ERK, STAT3, STAT6, ARG-1, CD163, TGF-β, CD206 in IL-4-stimulated RAW264.7 cells. The series is described as follows: M2 polarization markers in IL-4-stimulated RAW264.7 cells (Western blot, immunofluorescence). It counts as cell-based, mouse. As for the experimental part:
as §1
RAW264.7 cells were fixed with 500 μL/well 4% paraformaldehyde for 20 min at room temperature, washed with 1 mL/well PBS five times, then incubated with anti-iNOS, anti-COX-2, or anti-CD206 antibodies at 4 °C overnight, separately. The cells were washed with 1 mL/well PBS five times, then treated with the secondary antibody (FITC-Goat anti-rabbit IgG antibody, 1:200-fold dilution) and DPAI (100 μL/well). […] The stained images were captured under a laser scanning confocal microscope (Nikon A1 AIR MP+, Tokyo, Japan).
as §2

For series [3], the system named is Bax, cleaved caspase 3 and 8, IL-6, ARG-1, CD206, COX2 in HepG2 and RAW264.7 cell co-cultivations. In words: Western blotting and ELISA in HepG2 and RAW264.7 co-cultivation. It counts as cell-based. As to the method:
(§3) The isolates were evaluated for their inhibitory effect on NO production in LPS-induced RAW264.7 cells. The iNOS inhibitor ([…], L-NMMA) was selected as the positive control. NO was evaluated by absorbance-based detection on nitrite accumulated in the culture medium. The levels of cytokines (IL-1β, IFN-γ, IL-10, TNF-α, and IL-6) in the cell supernatant were determined using an ELISA kit (Novus Biologicals, Centennial, CO, USA) according to the manufacturer’s instructions. The absorbance was read at OD450nm/OD540nm in SpectraMax340PC microplate spectrophotometer (Molecular Devices, San Jose, CA, USA).
as §2

Series [4] deals with HepG2 cells. In words: Annexin V/PI flow cytometry, apoptosis of HepG2 cells. It counts as cell-based, human. The conditions noted are these: 12.5 μmol·L^−1 or 25 μmol·L^−1. As for the experimental part: (§4) Cells with the relevant surface antibodies were incubated at 4 °C for 30 min without light. The stained cells were incubated with Annexin V/PI kits from BD. The experiment was conducted according to the instructions. Data were analyzed on FlowJo V10 software.
For orientation: In flow cytometry, cells or beads pass a laser one at a time.

The test system of series [5] is HepG2 and RAW264.7 cell co-cultivations. The series is described as follows: Annexin V/PI flow cytometry, HepG2 and RAW264.7 co-cultivation. It counts as cell-based. The conditions noted are these: 48 h, compared with the HepG2 cell group. As for the experimental part: as §4
Series [6] relates to HepG2 cells. The series is described as follows: MTT assay, cell viability of HepG2 cells. The conditions noted are these: Homo sapiens. It counts as cell-based. As for the experimental part:
(§5) 8 × 10^4 cells/well were incubated in 96T wells for 24 h, and the cells were treated with a drug-containing medium for a specified time. Cells were added 20 μL 0.5% MTT (Sigma, USA) to each well, continued to incubate at 37 °C for 3.5 h, then the medium was discarded and 150 μL of DMSO was added to each well to dissolve the purple formazan. The cells were shaken for 15 min at room temperature and read at 490 nm. Cell viability (%) = ([…])/(ODcontrol − ODblank) × 100%. IC50 (half maximal inhibitory concentration) was calculated by SPSS 27.0 software.
Background: Tetrazolium assays rely on reduction of a dye to a coloured formazan, in cell work by metabolically active cells.

Series [7] relates to NO production in LPS-stimulated RAW264.7 cells. In words: cells. It counts as cell-based. The conditions noted are these: Mus musculus. As to the method:
as §1, §3

The test system of series [8] is iNOS, COX2, NO, IL-1β, IL-6 in LPS-stimulated RAW264.7 cells. In words: Inflammatory mediators in LPS-stimulated RAW264.7 cells (Western blot, ELISA, immunofluorescence). It counts as cell-based, mouse. The conditions noted are these: LPS (1 μg·mL^−1)-stimulated RAW264.7, 10 and 5 μmol·L^−1, 24 h. As to the method: Mouse macrophage cell line RAW264.7 was incubated in a DMEM medium (Gibco, Carlsabad, CA, USA) supplemented with 10% fetal bovine serum (FBS, Gibco), 10,000 U/mL penicillin, and 10,000 μg/mL streptomycin. RAW264.7 cells were treated with 1 μg/mL Lipopolysaccharide (LPS, Sigma, Saint Louis, MO, USA, 12181202) to promote the polarization of macrophages towards M1 or 20 ng/mL interleukin 4 (IL-4, Beyotime, Shanghai, China) to promote the polarization of macrophages towards M2. […]
The isolates were evaluated for their inhibitory effect on NO production in LPS-induced RAW264.7 cells. […] NO was evaluated by absorbance-based detection on nitrite accumulated in the culture medium. The levels of cytokines (IL-1β, IFN-γ, IL-10, TNF-α, and IL-6) in the cell supernatant were determined using an ELISA kit (Novus Biologicals, Centennial, CO, USA) according to the manufacturer’s instructions. The absorbance was read at OD450nm/OD540nm in SpectraMax340PC microplate spectrophotometer (Molecular Devices, San Jose, CA, USA).
Protein samples were prepared using a RIPA lysis buffer. The concentration of the protein was analyzed using nucleic acid and protein microanalyzer (Molecular Devices, San Jose, CA, USA). […] The protein bands were detected by the ECL and were exposed to the TANON gel imager (Shanghai, China). The results were analyzed by Image J 180 software.

Series [9] is described as follows: MTT assay, cell viability of RAW264.7 cells. It counts as cell-based. The conditions noted are these: mouse, RAW264.7 macrophage cells; half inhibitory of RAW264.7 cells, cell survival, n = 3. As to the method: as §1, §5
Series [10] concerns PKC δ and ERK in HepG2 cells. In words: Western blotting of PKC δ and ERK expression and phosphorylation in HepG2 cells. It counts as cell-based, human. As for the experimental part: as §2
The subject of series [11] is MCF-7 cells. The series is described as follows: MTT assay, cell viability of MCF-7 cells. It counts as cell-based. The conditions noted are these: Homo sapiens, MCF7, read-out: MCF-7 IC50. As to the method:
as §5

Series [12] relates to A549 cells. In words: MTT assay, cell viability of A549 cells. It counts as cell-based. The conditions noted are these: Homo sapiens, A549, read-out: A549 IC50. As for the experimental part: as §5
Series [13] concerns Bax, cleaved caspase 3, cleaved caspase 8 in HepG2 cells. The series is described as follows: Western blotting of apoptosis-related proteins in HepG2 cells. It counts as cell-based, human. The conditions noted are these: 12.5 or 25 μmol·L^−1. As to the method: as §2
[14] abbreviates: IL-4 (20 ng/mL)-stimulated RAW264.7, 10 μmol·L^−1, 0–60 min.
The mark [15] stands for this setting: compared with HepG2 cell group and co-cultivation group.

Like-named read-outs stand apart in the source and are kept apart here.

As for “bisindolylmaleimide [reference compound]”, in series [1], the “level of PKC δ protein” value is recorded as “did not”; the “phosphorylation of PKC δ, ERK, and NF-κB” value is “significantly reduced”.
`CCCCCCCCCCCC(=O)OC12CC(C)C34C=C(C)C(OC(=O)C(C)C(C)C)C3(O)C(O)C(CO)=CC(C4=O)C1C2(C)C` (centres unmarked) [Compound A, 13-hydroxyingenol-3-(2,3-dimethylbutanoate)-13-dodecanoate]: in series [2] (setting [14]), the “PKC δ and ERK activation” value is recorded as “promote”; the STAT6 phosphorylation entry is given as “inhibited”. Further, the “activation of STAT3 and STAT6” value in series [2] (IL-4-stimulated RAW264.7, co-treatment 24 h) is on record as “inhibited”. In addition, the “expression of ARG-1, CD163, TGF-β, and CD206” value in series [2] (IL-4-stimulated RAW264.7 cells) was “downregulated”. Further, the “level of Bax, and cleaved caspase 3 and 8” value in series [3] (10 μmol·L^−1, 48 h) was “significantly increase”. Also, in series [3] (setting [15]), the COX2 expression entry was “increased”; the “expression of ARG-1 and CD206” value is “decreased”; the “level of IL-6” value is recorded as “decreased”. Besides, the “apoptosis in HepG2 cells” value in [4] is “significantly induced apoptosis”. Moreover, in series [1] (LPS (1 μg·mL^−1)-stimulated RAW264.7, compound A 10 μmol·L^−1, 0-60 min), the “time of highest point of phosphorylation of PKC δ, ERK, and NF-κB” value was 20 to 30 min. For the same molecule, in series [1], the “level of PKC δ protein” value is “decreased”; the “phosphorylation of PKC δ, ERK, and NF-κB” value is listed as “significantly reduced”. Moreover, the apoptosis rates result in series [5] is reported as “upregulated”. For the same molecule, the 50% inhibitory concentration (IC50) in series [6] (HepG2, read-out: HepG2 IC50) is 21 ± 4.53 µM. In series [7] (LPS-stimulated RAW264.7 cells, n = 3, read-out: RAW264.7 IC50 (inhibition of nitric oxide production)), the 50% inhibitory concentration (IC50) turned out to be 0.57 ± 0.07 µM. Further, in [8], the COX2 expression entry is “increased”; the “expression of iNOS and production of cytokines (NO, IL-1β, IL-6)” value is recorded as “decrease”. This molecule also displayed a cytotoxic concentration (CC50) in [9] of 20.3 ± 3.62 µM. Besides, the “time of highest level of phosphorylation of PKC δ” value in [10] (treated 0, 10, 20, 40, 60 min) was in the range of 10 to 20 min. Further, in series [10] (versus control group), the “expression of PKC δ” value is on record as “decreased”; the “phosphorylation of PKC δ (p-PKC δ) and ERK (p-ERK)” value is reported as “downregulated”. Further, in series [11], the IC50 stood at 27.1 ± 3.34 µM. For the same molecule, the IC50 in [12] was 22 ± 5.01 µM. Besides, the “expression of Bax, cleaved caspase 3, and cleaved caspase 8” value in [13] is recorded as “increased”.
As to `[H]/N=C(/NC)NCCC[C@H](N)C(=O)O` [l-NMMA, NG-monnomycin-l-arginine, reference compound], the IC50 in series [7] (RAW264.7, read-out: RAW264.7 IC50 (inhibition of nitric oxide production)) worked out at 21.8 ± 3.21 µM. Moreover, the cytotoxic concentration (CC50) in [9] was over 50 µM.
As to `COc1cccc2c1C(=O)c1c(O)c3c(c(O)c1C2=O)C[C@@](O)(C(=O)CO)C[C@@H]3O[C@H]1C[C@H](N)[C@H](O)[C@H](C)O1` [Adr, adriamycin, reference compound], the IC50 in [6] (HepG2, cell viability, MTT, n = 3, read-out: HepG2 IC50) worked out at 4.37 ± 1.21 µM.
